The record followed here is patent US20070128685A1, “Methods and compositions for cell culture” (priority 2005, published 2007).

Assay [1] concerns Normal human adult chondrocytes and normal rodent chondrocytes. Description: Culture of chondrocytes in supplemented DMEM serum free media. Format: cell-based. The settings on record: DMEM SFM, Collagenase 5 μg/ml; after 4, 6, and 9 passages. How it is done: Currently, there is not any SFM commercially available for chondrocytes. Using the serum-containing media available, the life-span of the chondrocytes in culture is very limited (up to 3 to 4 passages, between 10-15 doublings times). Thus, the present example illustrates the use of collagenase and forskolin to allow the used of SFM with chondrocytes.
Normal human adult chondrocytes and normal rodent chondrocytes were cultured in a SFM. Collagenase (5 μg/ml) was added into the DMEM serum free media (SFM) and tested on said primary and secondary chondrocytes cultures.

The test system of assay [2] is Human dermal adult and newborn skin fibroblasts. The experiment in a line: Proliferation of human dermal fibroblasts in media supplemented with collagenase. Conditions: primary and secondary culture. Format: cell-based. How it is done: Human dermal adult and newborn skin fibroblasts were cultured in a SFM and serum-containing media (DMEM 5% FBS). Collagenase ([…]) was added to the DMEM serum free media (SFM) and tested on primary and secondary culture of human adult and newborn fibroblasts. In both cases (SFM and DMEM 5%) Collagenase increase cell proliferation up to 2-2.5 fold over the controls.

With Collagenase, the growth of chondrocytes result in assay [1] is on record as “robust growth”. Further, the “increase of cell proliferation over the controls” value in assay [2] (DMEM serum free media (SFM), Collagenase 1 μg/nl) is recorded as 2-2.5 fold; in assay [2] (serum-containing media (DMEM 5% FBS)) it was 2-2.5 fold.
